We go through 2 molecules from patent US20230303547A1, “N-CYANOPYRROLIDINES WITH ACTIVITY AS USP30 INHIBITORS” (MISSION THERAPEUTICS LIMITED, priority 2020, published 2023).

The target in data set [1] is UCHL1 (Homo sapiens (Human), UniProt P09936). In words: UCHL1 DUB IC50. It counts as biochemical.
The target in data set [2] is Cathepsin V (Homo sapiens (Human), UniProt O60911). Nature of the data set: Cathepsin V IC50. It counts as biochemical.
Data set [3] concerns P-glycoprotein (MDR1), human. Nature of the data set: MDR1-MDCK flux assay. It counts as in vitro ADME. Particulars: dog, read-out: MDR1-MDCK Effective Efflux Ratio. The source says:
The treatment of CNS disorders, including Alzheimer’s disease, Parkinson’s disease, and other disorders described herein, requires drug molecules to target the brain, which requires adequate penetration of the blood brain barrier. […] The probability that a compound can cross the blood brain barrier may be measured by an in vitro flux assay utilizing a MDR1-MDCK cell monolayer (Madin-Darby Canine Kidney cells transfected with MDR-1 resulting in overexpression of the human efflux transporter P-glycoprotein). Additionally, exposure may also be measured directly in brain and plasma using in vivo animal models.
MDR1-MDCK (Madin-Darby Canine Kidney cell monolayer) (in vitro) flux assay.

Data set [4] in a line: WT-MDCK in vitro flux. As to conditions: dog. It counts as in vitro ADME. The text has this: WT-MDCK (wild-type) in vitro flux.
Data set [5] addresses hERG potassium channel (Homo sapiens (Human), UniProt Q12809). In words: hERG potassium channel current in CHO cells. As to conditions: 30 µM, stably expressed CHO cells. It counts as cell-based. The protocol: The hERG predictor assay provides valuable information about the possible binding of test compounds to the potassium channel and potential QT prolongation on […]. Inhibition of the hERG current causes QT interval prolongation resulting in potentially fatal ventricular tachyarrhythmia (Torsades de Pointes). Typically, assay data may be generated from an automated patch-clamp assay platform.
Example 2 was evaluated for effects on the hERG potassium channel, in stably expressed CHO cells at concentrations between 0.01 and 30 µM. Example 2 produced maximum inhibition value of 35% of the hERG current amplitude at 30 µM indicating little propensity for affecting the QT interval.

In data set [6] the test system is Salmonella typhimurium strains TA98, TA100, TA1535 and TA97a and the Escherichia Coli strain WP2 uvrA pKM101. Nature of the data set: Bacterial reverse mutation assay (Ames). It counts as cell-based. Particulars: up to 5000 µg/plate with and without metabolic activation. How it is done: The bacterial reverse mutation assay (Ames Test) may be used to evaluate the mutagenic properties of compounds of the invention, commonly by using the bacterial strain Salmonella typhimurium, which is mutant for the biosynthesis of the amino acid histidine.
(§1) Example 2 was assessed in the bacterial reverse mutation assay (Ames) and in vitro micronucleus assay. All in vitro tests were conducted with and without exogenous metabolic activation using concentrations up to those limited by cytotoxicity or insolubility.

The subject of data set [7] is TK6 cells. In words: In vitro micronucleus assay. It counts as cell-based. Particulars: 27 hours recovery. The protocol:
The micronucleus assay may be used to determine if a compound is genotoxic by evaluating the presence of micronuclei. Micronuclei may contain chromosome fragments produced from DNA breakage (clastogens) or whole chromosomes produced by disruption of the mitotic apparatus (aneugens).
as §1
Induction of chromosome damage was assessed using the in vitro micronucleus assay in TK6 cells. Example 2 was negative for induction of micronuclei when incubated for 3 hours in the presence of exogenous metabolic activation followed by 27 hours recovery, and also when incubated for 27 hours in the absence of exogenous metabolic activation followed by 27 hours recovery.

The subject of data set [8] is Eurofins CEREP SafetyScreen44 panel. Nature of the data set: Eurofins CEREP SafetyScreen44 panel. It counts as binding. The text has this: Aside from selectivity over other DUB enzymes, it is important for a drug to have low affinity for other targets, and pharmacological profiling may be performed against panels of targets to assess the potential for, and to minimise, potential off-target effects. Examples of targets for which the compounds of the present invention may be screened against are those of the industry standard Eurofins-Cerep SafetyScreen44 panel, which includes 44 targets as a representative selection of GPCR receptors, transporters, ion channels, nuclear receptors, and kinase and non-kinase enzymes. Preferably, compounds of the invention have insignificant affinity against targets of this screening panel. Further examples of targets for which the compounds of the present invention may be screened against are kinases of the Thermo Fisher SelectScreen kinase profiling panel, which includes 39 targets as a representative selection of kinase enzymes. Preferably, compounds of the invention have insignificant affinity against targets of this screening panel. Additionally, examples of a particular enzyme class for which the compounds of the present invention may be screened against are the cathepsins (e.g. cathepsin A, B, C, H, K, L, L2, S, V and Z). Preferably, compounds of the invention have good selectivity for USP30 over one or more of these enzymes. […]

Cathepsin V, sequence (O60911 114-334, species assumed): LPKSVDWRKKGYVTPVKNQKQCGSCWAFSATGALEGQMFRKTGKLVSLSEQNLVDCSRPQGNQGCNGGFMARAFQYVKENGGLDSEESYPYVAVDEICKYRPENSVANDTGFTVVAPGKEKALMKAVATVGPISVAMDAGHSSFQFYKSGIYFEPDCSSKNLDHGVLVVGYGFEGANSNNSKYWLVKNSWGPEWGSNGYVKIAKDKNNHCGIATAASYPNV
UCHL1, sequence (P09936 whole entry, species assumed): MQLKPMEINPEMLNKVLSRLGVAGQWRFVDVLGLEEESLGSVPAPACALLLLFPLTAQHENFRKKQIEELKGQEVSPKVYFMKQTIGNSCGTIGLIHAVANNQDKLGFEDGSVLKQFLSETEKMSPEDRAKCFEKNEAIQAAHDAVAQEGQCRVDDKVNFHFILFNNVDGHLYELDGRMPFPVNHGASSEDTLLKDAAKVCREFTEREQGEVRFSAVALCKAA
hERG potassium channel, sequence (Q12809 whole entry): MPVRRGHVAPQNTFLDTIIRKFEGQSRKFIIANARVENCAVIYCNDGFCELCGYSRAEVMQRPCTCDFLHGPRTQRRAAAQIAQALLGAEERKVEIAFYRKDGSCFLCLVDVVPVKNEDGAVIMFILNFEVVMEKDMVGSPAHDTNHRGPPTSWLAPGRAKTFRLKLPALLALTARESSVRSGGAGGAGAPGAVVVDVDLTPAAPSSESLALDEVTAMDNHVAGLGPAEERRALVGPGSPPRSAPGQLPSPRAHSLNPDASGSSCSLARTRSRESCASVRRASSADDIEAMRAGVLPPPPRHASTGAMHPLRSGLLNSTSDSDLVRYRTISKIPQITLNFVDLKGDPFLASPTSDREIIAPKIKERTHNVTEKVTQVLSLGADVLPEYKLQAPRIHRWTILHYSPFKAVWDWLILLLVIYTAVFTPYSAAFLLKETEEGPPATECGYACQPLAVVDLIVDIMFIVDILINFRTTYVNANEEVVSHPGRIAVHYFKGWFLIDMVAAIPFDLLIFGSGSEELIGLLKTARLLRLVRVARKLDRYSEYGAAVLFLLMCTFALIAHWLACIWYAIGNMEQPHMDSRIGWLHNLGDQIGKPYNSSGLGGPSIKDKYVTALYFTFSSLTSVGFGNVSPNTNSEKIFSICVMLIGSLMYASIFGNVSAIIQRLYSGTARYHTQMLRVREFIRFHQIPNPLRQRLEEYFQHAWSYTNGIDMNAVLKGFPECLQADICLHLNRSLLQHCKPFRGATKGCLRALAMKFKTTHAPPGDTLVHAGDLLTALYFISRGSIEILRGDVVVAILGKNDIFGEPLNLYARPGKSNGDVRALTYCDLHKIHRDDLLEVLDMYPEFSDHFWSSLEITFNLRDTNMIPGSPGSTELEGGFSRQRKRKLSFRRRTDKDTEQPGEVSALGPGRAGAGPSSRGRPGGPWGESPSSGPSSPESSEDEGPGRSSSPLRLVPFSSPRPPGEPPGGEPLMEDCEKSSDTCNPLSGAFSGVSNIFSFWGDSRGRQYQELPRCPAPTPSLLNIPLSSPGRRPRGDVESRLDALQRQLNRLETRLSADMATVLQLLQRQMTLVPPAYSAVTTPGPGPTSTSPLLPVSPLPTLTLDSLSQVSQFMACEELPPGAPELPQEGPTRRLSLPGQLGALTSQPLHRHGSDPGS

As for `COC[C@@H]1C[C@@H](NC(=O)c2ncc(-c3cc(C#N)ccc3OC3CC3)o2)CN1C#N` [Example 2, 5-(5-cyano-2-cyclopropoxyphenyl)-N-((3R,5S)-1-cyano-5-(methoxymethyl)pyrrolidin-3-yl)oxazole-2-carboxamide], the values for the IC50 in data set [1] and in data set [2] were greater than 300 µM and 60.6 µM, respectively. For the same molecule, the efflux ratio in data set [3] was determined as 15; in data set [4], 0.7. The molecule also showed a Papp A→B in data set [4] (A-B) of 10.7 ×10⁻⁶ cm/s. Besides, the “maximum inhibition of the hERG current amplitude” value in data set [5] turned out to be 35%. Besides, in data set [6], the “induction of mutations in reverse mutation assay” value is given as “did not induce mutations”. In addition, the induction of micronuclei result in data set [7] (3 hours in the presence of exogenous metabolic activation) and in data set [7] (27 hours in the absence of exogenous metabolic activation) was “negative” in each case.
Turning to `C[C@@H]1C[C@@H](NC(=O)c2ncc(-c3cc(C#N)ccc3OC3CC3)o2)CN1C#N` [Example 1, 5-(5-cyano-2-cyclopropoxyphenyl)-N-((3R,5R)-1-cyano-5-methylpyrrolidin-3-yl)oxazole-2-carboxamide], the IC50 in data set [1] was greater than 300 µM; in data set [2], 30.9 µM. Besides, the “affinity for targets in this assay” value in data set [8] is on record as “low affinity”.
